Results taken from PubChem BioAssay (NCI).
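Here, GI50 denotes the concentration required for 50% inhibition of growth. TGI: total growth inhibition.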

Columns and labels:
Test in all cases: NCI-60 cell line screen, 384-well format
786-0 renal = tested on: 786-0 renal
HOP-62 NSCLC = tested on: HOP-62 NSCLC
HT29 colon = tested on: HT29 colon
EKVX NSCLC = tested on: EKVX NSCLC
KM12 colon = tested on: KM12 colon
IGROV1 ovarian = tested on: IGROV1 ovarian
UACC-257 melanoma = tested on: UACC-257 melanoma
LOX IMVI melanoma = tested on: LOX IMVI melanoma
DU-145 prostate = tested on: DU-145 prostate
K-562 leukemia = tested on: K-562 leukemia
SN12C renal = tested on: SN12C renal
HS 578T breast = tested on: HS 578T breast
M14 melanoma = tested on: M14 melanoma
PC-3 prostate = tested on: PC-3 prostate
UACC-62 melanoma = tested on: UACC-62 melanoma
SNB-75 CNS = tested on: SNB-75 CNS
MALME-3M melanoma = tested on: MALME-3M melanoma
A498 renal = tested on: A498 renal
RPMI-8226 leukemia = tested on: RPMI-8226 leukemia
MCF7 breast = tested on: MCF7 breast
HOP-92 NSCLC = tested on: HOP-92 NSCLC
MOLT-4 leukemia = tested on: MOLT-4 leukemia
NCI-H226 lung = tested on: NCI-H226 lung
MDA-MB-231 breast = tested on: MDA-MB-231 breast
SK-OV-3 ovarian = tested on: SK-OV-3 ovarian
BT-549 breast = tested on: BT-549 breast
OVCAR-8 ovarian = tested on: OVCAR-8 ovarian
SK-MEL-5 melanoma = tested on: SK-MEL-5 melanoma
NCI/ADR-RES ovarian = tested on: NCI/ADR-RES ovarian

C[C@H](Nc1ncnc2nc[nH]c12)c1cc2ccc(F)cc2nc1-c1ccccn1
GI50 ([…]-0 renal): 30.4 µM
TGI (786-0 renal): > 100 µM
GI50 (HOP-62 NSCLC): > 100 µM
TGI (HOP-62 NSCLC): > 100 µM
GI50 (HT29 colon): > 100 µM
TGI (HT29 colon): > 100 µM
GI50 (EKVX NSCLC): 37.6 µM
TGI (EKVX NSCLC): > 100 µM
GI50 (KM12 colon): > 100 µM
TGI (KM12 colon): > 100 µM
GI50 (IGROV1 ovarian): 21.2 µM
TGI (IGROV1 ovarian): 93.2 µM
GI50 (UACC-257 melanoma): > 100 µM
TGI (UACC-257 melanoma): > 100 µM
GI50 (LOX IMVI melanoma): > 100 µM
TGI (LOX IMVI melanoma): > 100 µM
GI50 (DU-145 prostate): > 100 µM
TGI (DU-145 prostate): > 100 µM
GI50 (K-562 leukemia): > 100 µM
TGI (K-562 leukemia): > 100 µM
GI50 (SN12C renal): 12.4 µM
TGI (SN12C renal): > 100 µM
GI50 (HS 578T breast): 24.7 µM
TGI (HS 578T breast): > 100 µM
GI50 (M14 melanoma): > 100 µM
TGI (M14 melanoma): > 100 µM
GI50 (PC-3 prostate): 18.2 µM
TGI (PC-3 prostate): > 100 µM
GI50 (UACC-62 melanoma): 29.2 µM
TGI (UACC-62 melanoma): > 100 µM
GI50 (SNB-75 CNS): 24.3 µM
TGI (SNB-75 CNS): > 100 µM
GI50 (MALME-3M melanoma): 23.6 µM
TGI (MALME-3M melanoma): > 100 µM
GI50 (A498 renal): 17.5 µM
TGI (A498 renal): > 100 µM
GI50 (RPMI-8226 leukemia): 22.4 µM
TGI (RPMI-8226 leukemia): > 100 µM
GI50 (MCF7 breast): 21 µM
TGI (MCF7 breast): > 100 µM
GI50 (HOP-92 NSCLC): 12.7 µM
TGI (HOP-92 NSCLC): > 100 µM
GI50 (MOLT-4 leukemia): 23.3 µM
TGI (MOLT-4 leukemia): > 100 µM
GI50 (NCI-H226 lung): 35.7 µM
TGI (NCI-H226 lung): > 100 µM
GI50 (MDA-MB-231 breast): 53 µM
TGI (MDA-MB-231 breast): > 100 µM
GI50 (SK-OV-3 ovarian): 64.3 µM
TGI (SK-OV-3 ovarian): > 100 µM
GI50 (BT-549 breast): 21.1 µM
TGI (BT-549 breast): > 100 µM
GI50 (OVCAR-8 ovarian): > 100 µM
TGI (OVCAR-8 ovarian): > 100 µM
GI50 (SK-MEL-5 melanoma): > 100 µM
TGI (SK-MEL-5 melanoma): > 100 µM
GI50 (NCI/ADR-RES ovarian): > 100 µM
TGI (NCI/ADR-RES ovarian): > 100 µM
